Source: US20230303497A1, “BENZYLAMINE OR BENZYL ALCOHOL DERIVATIVE AND USES THEREOF” (CHENGDU HYPERWAY PHARMACEUTICALS CO., LTD, priority 2020, published 2023)

These molecules were tested against human NaV1.8 ion channel (Homo sapiens (Human), UniProt Q9Y5Y9) (assay: Compound inhibition activity on human NaV1.8 ion channel in HEK293 cells (whole-cell patch clamp)). Details: 100 nm concentration; HEK293 cells, resting protocol.
Format: cell-based
Experimental: Test Case 1: Compound Inhibition Activity on Human NaV1.8 Ion Channel in HEK293 Cells
The final concentrations of the test compounds are prepared on the same day and then dissolved in extracellular solution. […] The intracellular solution (mM) contains: Aspartic acid, 140; MgCl2, 2; EGTA 11; HEPES, 10; pH 7.2 (CsOH titration). All test solutions contain 1 μM TTX.
The test solution are stored at a concentration of 3 mM in dimethyl sulfoxide (DMSO). The solutions will be dissolved in extracellular solution on the day of testing and prepared to the required concentration.
All experiments were performed at room temperature. Each cell itself is taken as the corresponding control.
At least one cell is tested per concentration.
HEK293 cell steady expressing NaV1.8 ion channel.
The intracellular fluid (mM) contains: Aspartic acid, 140; MgCl2, 2; EGTA 11; HEPES, 10; pH 7.2 (CsOH titration). […] Electrodes are drawn with PC-10 (Narishige, Japan). Recording is performed with whole-cell diaphragm clamp.
The cells are clamped at −80 mV and then depolarized to 10 mV with a sustained 10 ms square wave to give a Nav1.8 current. This procedure is repeated every 5 seconds.

human NaV1.8 ion channel, sequence (Q9Y5Y9 whole entry): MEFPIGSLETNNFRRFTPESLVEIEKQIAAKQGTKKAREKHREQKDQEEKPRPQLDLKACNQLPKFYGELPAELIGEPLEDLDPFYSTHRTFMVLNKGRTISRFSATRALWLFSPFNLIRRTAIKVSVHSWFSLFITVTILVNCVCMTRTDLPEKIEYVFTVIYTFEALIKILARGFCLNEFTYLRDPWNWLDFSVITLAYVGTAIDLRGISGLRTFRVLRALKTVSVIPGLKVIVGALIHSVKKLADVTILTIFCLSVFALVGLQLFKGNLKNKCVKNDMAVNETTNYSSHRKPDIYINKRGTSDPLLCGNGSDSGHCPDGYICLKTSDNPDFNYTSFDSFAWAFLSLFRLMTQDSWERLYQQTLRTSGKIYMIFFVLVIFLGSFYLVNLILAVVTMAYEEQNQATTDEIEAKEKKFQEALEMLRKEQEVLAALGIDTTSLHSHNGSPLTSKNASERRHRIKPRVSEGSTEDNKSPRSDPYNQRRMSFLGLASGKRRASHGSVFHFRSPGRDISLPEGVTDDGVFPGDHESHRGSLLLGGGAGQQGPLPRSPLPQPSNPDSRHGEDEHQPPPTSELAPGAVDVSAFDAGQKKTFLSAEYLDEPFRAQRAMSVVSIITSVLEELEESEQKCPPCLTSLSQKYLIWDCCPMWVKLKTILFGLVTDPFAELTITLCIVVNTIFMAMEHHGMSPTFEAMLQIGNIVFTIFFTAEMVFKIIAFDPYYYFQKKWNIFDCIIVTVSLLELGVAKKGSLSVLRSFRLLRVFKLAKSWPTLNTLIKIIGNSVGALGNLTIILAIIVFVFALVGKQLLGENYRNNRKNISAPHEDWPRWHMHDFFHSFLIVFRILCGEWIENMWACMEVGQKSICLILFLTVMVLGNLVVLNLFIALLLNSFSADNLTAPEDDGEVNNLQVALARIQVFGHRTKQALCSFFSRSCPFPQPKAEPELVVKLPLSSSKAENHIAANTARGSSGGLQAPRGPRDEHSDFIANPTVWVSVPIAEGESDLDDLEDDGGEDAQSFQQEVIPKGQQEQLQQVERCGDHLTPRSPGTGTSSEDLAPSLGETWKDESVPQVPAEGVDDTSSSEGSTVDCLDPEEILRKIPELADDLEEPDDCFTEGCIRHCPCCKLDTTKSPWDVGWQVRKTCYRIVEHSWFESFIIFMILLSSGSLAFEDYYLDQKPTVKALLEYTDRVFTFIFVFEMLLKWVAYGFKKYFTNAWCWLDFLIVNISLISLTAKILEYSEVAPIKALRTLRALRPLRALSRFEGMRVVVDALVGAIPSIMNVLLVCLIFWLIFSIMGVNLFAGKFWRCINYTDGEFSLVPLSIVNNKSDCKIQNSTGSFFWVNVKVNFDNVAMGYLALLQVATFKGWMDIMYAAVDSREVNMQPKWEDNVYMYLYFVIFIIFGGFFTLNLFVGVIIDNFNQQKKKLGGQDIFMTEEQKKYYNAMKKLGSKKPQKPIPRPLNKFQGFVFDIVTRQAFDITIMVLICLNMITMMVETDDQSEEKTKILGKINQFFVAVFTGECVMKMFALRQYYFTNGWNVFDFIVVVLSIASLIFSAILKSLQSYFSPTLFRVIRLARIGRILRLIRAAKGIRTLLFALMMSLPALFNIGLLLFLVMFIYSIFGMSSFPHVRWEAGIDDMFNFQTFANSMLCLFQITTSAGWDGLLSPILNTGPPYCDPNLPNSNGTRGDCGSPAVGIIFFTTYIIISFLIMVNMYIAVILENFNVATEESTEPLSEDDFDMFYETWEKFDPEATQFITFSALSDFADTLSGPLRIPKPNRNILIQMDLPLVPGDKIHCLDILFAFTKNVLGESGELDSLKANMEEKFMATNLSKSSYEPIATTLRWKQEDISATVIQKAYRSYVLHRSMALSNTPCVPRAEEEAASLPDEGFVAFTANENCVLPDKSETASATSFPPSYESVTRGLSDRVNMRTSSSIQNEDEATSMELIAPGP

Molecule	Inhibition ratio of Nav1.8 (Activity of inhibition)
N-(3-(1-amino-3-fluoropropyl)-4-fluorophenyl)-4-cyclopropyl-2-(4-fluoro-2-methyl phenoxy)-5-(trifluoromethyl) benzamide [Example 21]	B (80 > B >= 50)

Same assay, conditions: 100 nm concentration; HEK293 cells, resting protocol; read-out: Inhibition ratio of Nav1.8 (Activity of inhibition)

inhibition at 0.1 µM	Molecule
> 80%	Cc1cc(F)ccc1Oc1cc(C2CC2)c(C(F)(F)F)cc1C(=O)Nc1ccc(F)c(C(N)CCN)c1 (stereo not drawn) [Example 24, 4-Cyclopropyl-N-(3-(1,3-diaminopropyl)-4-fluorophenyl)-2-(4-fluoro-2-methylphenoxy)-5-(trifluoromethyl) benzamide]
> 80%	Cc1cc(F)ccc1Oc1cc(C2CC2)c(C(F)(F)F)cc1C(=O)Nc1ccnc(C(N)CC(N)=O)c1 (stereo not drawn) [Example 35]
< 20%	Cc1cc(F)ccc1Oc1ccc(C(F)(F)F)cc1C(=O)Nc1ccc(F)c(C(N)CC(=O)O)c1 (stereo not drawn) [Example 2, 3-Amino-3-(2-fluoro-5-(2-(4-fluoro-2-methylphenoxy)-5-(trifluoromethyl)benzamido)phenyl) propanoic acid]
> 80%	CNC(=O)C(N)c1cc(NC(=O)c2ccc(C(F)(F)F)cc2Oc2ccc(F)cc2C)ccc1F (stereo not drawn) [Example 42]
> 80%	Cc1cc(F)ccc1Oc1cc(C(F)(F)F)ccc1C(=O)Nc1ccc(F)c(C(N)CC(N)=O)c1 (stereo not drawn) [Example 39]
> 80%	Cc1cc(F)ccc1Oc1cc(C2CC2)c(C(F)(F)F)cc1C(=O)Nc1ccc(F)c(C(N)C2CCNC2=O)c1 (stereo not drawn) [Example 19, N-(3-(amino (2-oxopyrrolidin-3-yl)methyl)-4-fluorophenyl)-4-cyclopropyl-2-(4-fluoro-2-methylphenoxy)-5-(trifluoromethyl) benzamide]
50 to 80%	Cc1cc(F)ccc1Oc1cc(C2CC2)c(C(F)(F)F)cc1C(=O)Nc1ccc(F)c(OCCN)c1 [Example 34, N-(3-(2-aminoethoxy)-4-fluorophenyl)-4-cyclopropyl-2-(4-fluoro-2-methylphenoxy)-5-(trifluoromethyl) benzamide]
20 to 50%	Cc1cc(F)ccc1Oc1ccc(C(F)(F)F)cc1C(=O)Nc1ccc(F)c(CNCC(N)=O)c1 [Example 13]
20 to 50%	Cc1cc(F)ccc1Oc1ccc(C(F)(F)F)cc1C(=O)Nc1ccc(F)c(C(O)C(N)=O)c1 (stereo not drawn) [Example 26, N-(3-(2-Amino-1-hydroxy-2-oxoethyl)-4-fluorophenyl)-2-(4-fluoro-2-methylphenoxy)-5-(trifluoromethyl) benzamide]
50 to 80%	COCCC(N)c1cc(NC(=O)c2cc(C(F)(F)F)c(C3CC3)cc2Oc2ccc(F)cc2C)ccc1F (stereo not drawn) [Example 5, N-(3-(1-Amino-3-methoxypropyl)-4-fluorophenyl)-4-cyclopropyl-2-(4-fluoro-2-methylphenoxy)-5-(trifluoromethyl) benzamide]
50 to 80%	Cc1cc(F)ccc1Oc1ccc(C(F)(F)F)cc1C(=O)Nc1ccc(F)c(C(C)N)c1 (stereo not drawn) [Example 14, N-(3-(1-aminoethyl)-4-fluorophenyl)-2-(4-fluoro-2-methylphenoxy)-5-(trifluoromethyl) benzamide]

Same assay, conditions: 100 nm concentration; HEK293 cells, resting protocol; read-out: Inhibition ratio of compounds against Nav1.8 (Activity of inhibition)

Molecule	inhibition at 0.1 µM
Cc1cc(F)ccc1Oc1cc(C2CC2)c(C(F)(F)F)cc1C(=O)Nc1ccc(F)c(OC2CC(N)C2)c1 (stereo not drawn) [Example 58, N-(3-(3-aminocyclobutoxy)-4-fluorophenyl)-4-cyclopropyl-2-(4-fluoro-2-methylphenoxy)-5-(trifluoromethyl) benzamide]	50 to 80%
Cc1cc(F)ccc1Oc1cc(C2CC2)c(C(F)(F)F)cc1C(=O)Nc1ccc(F)c(OCC(O)CNC(C)C)c1 (stereo not drawn) [Example 67]	> 80%
Cc1cc(F)ccc1Oc1cc(C2CC2)c(C(F)(F)F)cc1C(=O)Nc1ccc(F)c(OCC(=O)NCC(F)(F)F)c1 [Example 61]	20 to 50%
Cc1cc(F)ccc1Oc1cc(C2CC2)c(C(F)(F)F)cc1C(=O)Nc1ccc(F)c(OCC(O)CNC2(C(=O)O)CC2)c1 (stereo not drawn) [Example 86]	20 to 50%
Cc1cc(F)ccc1Oc1cc(C2CC2)c(C(F)(F)F)cc1C(=O)Nc1ccc(F)c(OCC(O)CNCC(F)(F)F)c1 (stereo not drawn) [Example 87]	50 to 80%
Cc1cc(F)ccc1Oc1cc(C2CC2)c(C(F)(F)F)cc1C(=O)Nc1ccnc(OCC(O)CNC(C)(C)C)c1 (stereo not drawn) [Example 64, N-(2-(3-(tert-butylamino)-2-hydroxypropoxy)pyridin-4-yl)-4-cyclopropyl-2-(4-fluoro-2-methylphenoxy)-5-(trifluoromethyl) benzamide]	20 to 50%
Cc1cc(F)ccc1Oc1cc(C2CC2)c(C(F)(F)F)cc1C(=O)Nc1ccc(F)c(OCC(O)CO)c1 (stereo not drawn) [Example 90]	50 to 80%
Cc1cc(F)ccc1Oc1cc(C2CC2)c(C(F)(F)F)cc1C(=O)Nc1ccc(F)c(OCC(O)CNC(C)(C)C)c1 (stereo not drawn) [Example 77]	> 80%
Cc1cc(F)ccc1Oc1cc(C2CC2)c(C(F)(F)F)cc1C(=O)Nc1ccc(F)c(OCC(O)CNC(C)C(F)(F)F)c1 (stereo not drawn) [Example 91]	20 to 50%
Cc1cc(F)ccc1Oc1cc(C2CC2)c(C(F)(F)F)cc1C(=O)Nc1ccc(F)c(OCC(O)CN2CCCC2)c1 (stereo not drawn) [Example 79]	20 to 50%
Cc1cc(F)ccc1Oc1cc(C2CC2)c(C(F)(F)F)cc1C(=O)Nc1ccc(F)c(C2CCNC(=O)N2)c1 (stereo not drawn) [Example 51, 4-Cyclopropyl-2-(4-fluoro-2-methylphenoxy)-N-(4-fluoro-3-(2-oxohexahydropyrimidin-4-yl)phenyl)-5-(trifluoromethyl) benzamide]	> 80%
Cc1cc(F)ccc1Oc1cc(C2CC2)c(C(F)(F)F)cc1C(=O)Nc1ccc(F)c(OCC(O)CN)c1 (stereo not drawn) [Example 57, N-(3-(3-amino-2-hydroxypropoxy)-4-fluorophenyl)-4-cyclopropyl-2-(4-fluoro-2-methylphenoxy)-5-(trifluoromethyl) benzamide]	> 80%
Cc1cc(F)ccc1Oc1cc(C2CC2)c(C(F)(F)F)cc1C(=O)Nc1ccc(F)c(OCC(O)CNC2CC2)c1 (stereo not drawn) [Example 78]	> 80%
Cc1cc(F)ccc1Oc1cc(C2CC2)c(C(F)(F)F)cc1C(=O)Nc1ccc(F)c(OCCNS(C)(=O)=O)c1 [Example 59, 4-cyclopropyl-2-(4-fluoro-2-methylphenoxy)-N-(4-fluoro-3-(2-(methylsulfonamido)ethoxy)phenyl)-5-(trifluoromethyl) benzamide]	20 to 50%
Cc1cc(F)ccc1Oc1cc(C2CC2)c(C(F)(F)F)cc1C(=O)Nc1ccc(F)c(OCc2nccs2)c1 [Example 75]	50 to 80%
Cc1cc(F)ccc1Oc1cc(C2CC2)c(C(F)(F)F)cc1C(=O)Nc1ccc(F)c(N)c1 [Example 52, N-(3-Amino-4-fluorophenyl)-4-cyclopropyl-2-(4-fluoro-2-methylphenoxy)-5-(trifluoromethyl) benzamide]	50 to 80%

Further lines, results first:

inhibition at 0.1 µM	Molecule
50 to 80%	Cc1cc(F)ccc1Oc1cc(C(F)(F)F)ccc1C(=O)Nc1ccc(F)c(OCC(O)CNC(=O)CO)c1 (stereo not drawn) [Example 107]
50 to 80%	Cc1cc(F)ccc1Oc1cc(C2CC2)c(C(F)(F)F)cc1C(=O)Nc1ccc(F)c(OCC(O)CNC23CC4CC(CC(C4)C2)C3)c1 (stereo not drawn) [Example 94]
50 to 80%	Cc1cc(F)ccc1Oc1cc(C2CC2)c(C(F)(F)F)cc1C(=O)Nc1cnnc(OCC(O)CO)c1 (stereo not drawn) [Example 102]
50 to 80%	Cc1cc(F)ccc1Oc1cc(C2CC2)c(C(F)(F)F)cc1C(=O)Nc1cnnc(OC[C@@H](O)CO)c1 [Example 111]
> 80%	Cc1cc(F)ccc1Oc1cc(C(F)(F)F)c(Cl)cc1C(=O)Nc1ccc(F)c(OCC(O)CNC(C)C)c1 (stereo not drawn) [Example 106]
50 to 80%	Cc1cc(F)ccc1Oc1cc(C2CC2)c(C(F)(F)F)cc1C(=O)Nc1ccc(F)c(OCC(O)CNC23CC(C2)C3)c1 (stereo not drawn) [Example 93]
> 80%	COc1cc(OC(F)(F)F)ccc1Oc1cc(C(F)(F)F)c(Cl)cc1C(=O)Nc1ccnc(OC[C@H](O)CO)c1 [Example 121]
20 to 50%	Cc1cc(F)ccc1Oc1cc(C(F)(F)F)ccc1C(=O)Nc1cnnc(OC[C@H](O)CO)c1 [Example 109]
50 to 80%	Cc1cc(F)ccc1Oc1cc(C2CC2)c(C(F)(F)F)cc1C(=O)Nc1ccc(F)c(OCC(O)CNc2ncc[nH]2)c1 (stereo not drawn) [Example 100]
> 80%	Cc1cc(F)ccc1Oc1cc(C(F)(F)F)c(Cl)cc1C(=O)Nc1ccnc(OC[C@@H](O)CO)c1 [Example 113, (S)-5-chloro-N-(2-(2,3-dihydroxypropoxy)pyridin-4-yl)-2-(4-fluoro-2-methylphenoxy)-4-(trifluoromethyl) benzamide]
50 to 80%	Cc1cc(F)ccc1Oc1cc(C(F)(F)F)c(Cl)cc1C(=O)Nc1cnnc(OC[C@@H](O)CO)c1 [Example 115]
20 to 50%	COc1ccc(NCC(O)COc2cc(NC(=O)c3cc(C(F)(F)F)c(C4CC4)cc3Oc3ccc(F)cc3C)ccc2F)cc1 (stereo not drawn) [Example 95]
20 to 50%	Cc1cc(F)ccc1Oc1cc(C2CC2)c(C(F)(F)F)cc1C(=O)Nc1ccc(F)c(OCC(O)CNc2ccc(F)cc2)c1 (stereo not drawn) [Example 96]

Same assay, conditions: HEK293, read-out: Inhibition ratio of compounds against Nav1.8 (Activity of inhibition)

Molecule	inhibition at 0.1 µM
Cc1cc(F)ccc1Oc1cc(C2CC2)c(C(F)(F)F)cc1C(=O)Nc1ccc(F)c(OCCOC(N)=O)c1 [Example 62, (2-(5-(4-Cyclopropyl-2-(4-fluoro-2-methylphenoxy)-5-(trifluoromethyl)benzamido)-2-fluorophenoxy)ethyl) carbamate]	50 to 80%
